Measurements: patent US20160060260A1, “BROMODOMAIN INHIBITORS FOR TREATING DISEASE” (Board of Regents, The University of Texas System, priority 2014, published 2016)

These molecules were tested against T1, Recombinant human His-tagged Trim24-PHD-bromodomain (Homo sapiens, UniProt O15164) (assay: Trim24 AlphaScreen Assay). Conditions: 5 nM Trim24 protein, 15 nM biotinylated H3K23ac (1-33aa) peptide.
T1 construct: Recombinant human His-tagged Trim24-PHD-bromodomain (produced in-house); made in house
T1 sequence (O15164 824-1006 limits assumed): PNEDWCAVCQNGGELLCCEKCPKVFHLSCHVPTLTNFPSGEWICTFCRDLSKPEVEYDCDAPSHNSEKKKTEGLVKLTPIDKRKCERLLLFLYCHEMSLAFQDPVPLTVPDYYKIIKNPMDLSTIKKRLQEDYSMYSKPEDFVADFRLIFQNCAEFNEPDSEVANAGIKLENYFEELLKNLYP
Assay type: binding
Method in brief: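 His-tagged Trim24-PHD-bromodomain, biotinylated H3K23ac (1-33aa) peptide and compound incubated 1 h at room temperature in 50 mM Hepes pH 7.5, 100 mM NaCl, 0.12 mM Triton X-100.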

Row | SMILES | IC50
1 | CCCOc1cc(OCCCOC)cc(Oc2cc3c(cc2NS(=O)(=O)c2cccc(OC)c2)n(C)c(=O)n3C)c1 [Example 151, 3-methoxy-N-(6-(3-(3-methoxypropoxy)-5-propoxyphenoxy)-1,3-dimethyl-2-oxo-2,3-dihydro-1H-benzo[d]imidazol-5-yl)benzenesulfonamide] | 10 to 100 nM
2 | COCCS(=O)(=O)Nc1cc2c(cc1Oc1cccc(OCC(F)(F)F)c1)n(C)c(=O)n2C [Example 89, N-(1,3-dimethyl-2-oxco-6-(3-(2,2,2-trifluoroethoxy)phenoxy)-2,3-dihydro-1H-benzo[d]imidazol-5-yl)-2-methoxyethane-1-sulfonamide] | 100 to 1000 nM
3 | CCCOc1cc(OCCCCCCO)cc(Oc2cc3c(cc2NS(=O)(=O)c2cccnc2)n(C)c(=O)n3C)c1 [Example 180, N-(6-(3-((6-hydroxyhexyl)oxy)-5-propoxyphenoxy)-1,3-dimethyl-2-oxo-2,3-dihydro-1H-benzo[d]imidazol-5-yl)pyridine-3-sulfonamide] | 10 to 100 nM
4 | CC(C)COc1cccc(Oc2cc3c(cc2NS(=O)(=O)C2CC2)n(C)c(=O)n3C)c1 [Example 59, N-(6-(3-isobutoxyphenoxy)-1,3-dimethyl-2-oxo-2,3-dihydro-1H-benzo[d]imidazol-5-yl)cyclopropanesulfonamide] | 100 to 1000 nM
5 | Cn1c(=O)n(C)c2cc(Oc3cccc(OCc4ccccc4)c3)c(NS(=O)(=O)c3ccc4c(c3)OCO4)cc21 [Example 36, N-(6-(3-(benzyloxy)phenoxy)-1,3-dimethyl-2-oxo-2,3-dihydro-1H-benzo[d]imidazol-5-yl)benzo[d][1,3]dioxole-5-sulfonamide] | 100 to 1000 nM
6 | Cc1cc(OCC(C)C)cc(Oc2cc3c(cc2NS(=O)(=O)c2cn(C)cn2)n(C)c(=O)n3C)c1 [Example 222, N-(6-(3-isobutoxy-5-methylphenoxy)-1,3-dimethyl-2-oxo-2,3-dihydro-1H-benzo[d]imidazol-5-yl)-1-methyl-1H-imidazole-4-sulfonamide] | 10 to 100 nM
7 | Cn1cc(S(=O)(=O)Nc2cc3c(cc2Oc2cccc(OC(F)(F)F)c2)n(C)c(=O)n3C)cn1 [Example 73, N-(1,3-dimethyl-2-oxo-6-(3-(trifluoromethoxy)phenoxy)-2,3-dihydro-1H-benzo[d]imidazol-5-yl)-1-methyl-1H-pyrazole-4-sulfonamide] | > 1000 nM
8 | CC(C)COc1ccc(S(=O)(=O)Nc2cc3c(cc2Oc2cccc(OCc4ccccc4)c2)n(C)c(=O)n3C)cc1 [Example 16, N-(6-(3-(benzyloxy)phenoxy)-1,3-dimethyl-2-oxo-2,3-dihydro-1H-benzo[d]imidazol-5-yl)-4-isobutoxybenzenesulfonamide] | > 1000 nM
9 | CCCOc1cc(OCCCCCCNC(=O)OC(C)(C)C)cc(Oc2cc3c(cc2NS(=O)(=O)c2cn(C)cn2)n(C)c(=O)n3C)c1 [Example 119, tert-butyl (6-(3-((1,3-dimethyl-6-((1-methyl-1H-imidazole)-4-sulfonamido)-2-oxo-2,3-dihydro-1H-benzo[d]imidazol-5-yl)oxy)-5-propoxyphenoxy)hexyl)carbamate] | 100 to 1000 nM
10 | COc1ccc(S(=O)(=O)Nc2cc3c(cc2Oc2cccc(OCc4ccc(Cl)nc4)c2)n(C)c(=O)n3C)cc1OC [Example 20, N-(6-(3-((6-chloropyridin-3-yl)methoxy)phenoxy)-1,3-dimethyl-2-oxo-2,3-dihydro-1H-benzo[d]imidazol-5-yl)-3,4-dimethoxybenzenesulfonamide] | > 1000 nM
11 | CCc1cccc(S(=O)(=O)Nc2cc3c(cc2Oc2cccc(OCc4ccccc4)c2)n(C)c(=O)n3C)c1 [Example 33, N-(6-(3-(benzyloxy)phenoxy)-1,3-dimethyl-2-oxo-2,3-dihydro-1H-benzo[d]imidazol-5-yl)-3-ethylbenzenesulfonamide] | > 1000 nM
12 | C=CCOc1cccc(S(=O)(=O)Nc2cc3c(cc2Oc2cccc(OCCC)c2)n(C)c(=O)n3C)c1 [Example 106, 3-(allyloxy)-N-(1,3-dimethyl-2-oxo-6-(3-propoxyphenoxy)-2,.3-dihydro-1H-benzo[d]imidazol-5-yl)benzenesulfonamide] | 100 to 1000 nM
13 | CCCOc1cccc(Oc2cc3c(cc2NS(=O)(=O)c2cnn(C)c2C)n(C)c(=O)n3C)c1 [Example 91, N-(1,3-dimethyl-2-oxo-6-(3-propoxyphenoxy)-2,3-dihydro-1H-benzo[d]imidazol-5-yl)-1,5-dimethyl-1H-pyrazole-4-sulfonamide] | 10 to 100 nM
14 | CCCOc1cccc(Oc2cc3c(cc2NS(=O)(=O)c2cccnc2)n(C)c(=O)n3C)c1 [Example 99, N-(1,3-dimethyl-2-oxo-6-(3-propoxyphenoxy)-2,3-dihydro-1H-benzo[d]imidazol-5-yl)pyridine-3-sulfonamide] | 10 to 100 nM
15 | CCCOc1cc(OCCCOC)cc(Oc2cc3c(cc2NS(=O)(=O)c2cccc(C(C)C)c2)n(C)c(=O)n3C)c1 [Example 164, 3-isopropyl-N-(6-(3-(3-methoxypropoxy)-5-propoxyphenoxy)-1,3-dimethyl-2-oxo-2,3-dihydro-1H-benzo[d]imidazol-5-yl)benzenesulfonamide] | 100 to 1000 nM
16 | CC(C)COc1cc(F)cc(Oc2cc3c(cc2NS(=O)(=O)c2cn(C)cn2)n(C)c(=O)n3C)c1 [Example 224, N-(6-(3-fluoro-5-isobutoxyphenoxy)-1,3-dimethyl-2-oxo-2,3-dihydro-1H-benzo[d]imidazol-5-yl)-1-methyl-1H-imidazole-4-sulfonamide] | 10 to 100 nM
17 | COc1ccc(S(=O)(=O)Nc2cc3c(cc2Oc2ccc(F)c(OCC4CC4)c2)n(C)c(=O)n3C)cc1OC [Example 131, N-(6-(3-(cyclopropylmethoxy)-4-fluorophenoxy)-1,3-dimethyl-2-oxo-2,3-dihydro-1H-benzo[d]imidazol-5-yl)-3,4-dimethoxybenzenesulfonamide] | 100 to 1000 nM
18 | CCCOc1cc(OCCCOC)cc(Oc2cc3c(cc2NS(=O)(=O)c2ccc4c(c2)COC4)n(C)c(=O)n3C)c1 [Example 162, N-(6-(3-(3-methoxypropoxy)-5-propoxyphenoxy)-1,3-dimethyl-2-oxo-2,3-dihydro-1H-benzo[d]imidazol-5-yl)-1,3-dihydroisobenzofuran-5-sulfonamide] | 100 to 1000 nM
19 | Cn1cnc(S(=O)(=O)Nc2cc3c(cc2Oc2cccc(OCC4CCOCC4)c2)n(C)c(=O)n3C)c1 [Example 65, N-(1,3-dimethyl-2-oxo-6-(3-((tetrahydro-2H-pyran-4-yl)methoxy)phenoxy)-2,3-dihydro-1H-benzo[d]imidazol-5-yl)-1-methyl-1H-imidazole-4-sulfonamide] | 100 to 1000 nM
20 | Cn1cnc(S(=O)(=O)Nc2cc3c(cc2Oc2cccc(OCC(C)(O)CO)c2)n(C)c(=O)n3C)c1 (stereo not shown) [Example 231, N-{6-[3-(2,3-dihydroxy-2-methylpropoxy)phenoxy]-1,3-dimethyl-2-oxo-2,3-dihydro-1H-1,3-benzodiazol-5-yl}-1-methyl-1H-imidazole-4-sulfonamide] | 100 to 1000 nM
21 | Cc1n[nH]cc1S(=O)(=O)Nc1cc2c(cc1Oc1cccc(OCc3ccccc3)c1)n(C)c(=O)n2C [Example 48, N-(6-(3-(benzyloxy)phenoxy)-1,3-dimethyl-2-oxo-2,3-dihydro-1H-benzo[d]imidazol-5-yl)-3-methyl-1H-pyrazole-4-sulfonamide] | 100 to 1000 nM
22 | Cc1c(S(=O)(=O)Nc2cc3c(cc2Oc2cc(OCCCCCCN(C)C)cc(OCC(F)(F)F)c2)n(C)c(=O)n3C)cnn1C [Example 215, N-(6-(3-((6-(dimethylamino)hexyl)oxy)-5-(2,2,2-trifluoroethoxy)phenoxy)-1,3-dimethyl-2-oxo-2-3,-dihydro-1H-benzo[d]imidazol-5-yl)-1,5-dimethyl-1H-pyrazole-4-sulfonamide] | 1 to 10 nM
23 | Cc1n[nH]c(C)c1S(=O)(=O)Nc1cc2c(cc1Oc1cccc(OCC3CC3)c1)n(C)c(=O)n2C [Example 136, N-(6-(3-(cyclopropylmethoxy)phenoxy)-1,3-dimethyl-2-oxo-2,3-dihydro-1H-benzo[d]imidazol-5-yl)-3,5-dimethyl-1H-pyrazole-4-sulfonamide] | 10 to 100 nM
24 | CCCOc1cccc(Oc2cc3c(cc2NS(=O)(=O)c2cn(C)cn2)n(C)c(=O)n3C)c1 [Example 83, N-(1,3-dimethyl-2-oxo-6-(3-propoxyphenoxy)-2,3-dihydro-1H-benzo[d]imidazol-5-yl)-1-methyl-1H-imidazole-4-sulfonamide] | 10 to 100 nM
25 | C=CCOc1cccc(Oc2cc3c(cc2NS(=O)(=O)c2cccc4ccccc24)n(C)c(=O)n3C)c1 [Example 142, N-(6-(3-(allyloxy)phenoxy)-1,3-dimethyl-2-oxo-2,3-dihydro-1H-benzo[d]imidazol-5-yl)naphthalene-1-sulfonamide] | 100 to 1000 nM
26 | Cn1cnc(S(=O)(=O)Nc2cc3c(cc2Oc2cccc(OCCCC(=O)O)c2)n(C)c(=O)n3C)c1 [Example 227, 4-(3-(1,3-dimethyl-6-(1-methyl-1H-imidazole-4-sulfonamido)-2-oxo-2,3-dihydro-1H-benzo[d]imidazol-5-yloxy)phenoxy)butanoic acid] | > 1000 nM
27 | Cn1c(=O)n(C)c2cc(Oc3cccc(OCc4ccccc4)c3)c(NS(=O)(=O)c3cccnc3)cc21 [Example 14, N-(6-(3-(benzyloxy)phenoxy)-1,3-dimethyl-2-oxo-2,3-dihydro-1H-benzo[d]imidazol-5-yl)pyridine-3-sulfonamide] | 100 to 1000 nM
28 | COc1ccc(S(=O)(=O)Nc2cc3c(cc2Oc2cc(OCCCCCCN(C)C)cc(OCC(F)(F)F)c2)n(C)c(=O)n3C)cc1OC [Example 205, N-(6-(3-((6-(dimethylamino)hexyl)oxy)-5-(2,2,2-trifluoroethoxy)phenoxy)-1,3-dimethyl-2-oxo-2,3-dihydro-1H-benzo[d]imidazol-5-yl)-3,4-dimethoxybenzenesulfonamide] | 1 to 10 nM
